According to a compilation of properties of binary mixtures (doi:10.1021/acs.jced.8b00965):

Assay: xn = mol fraction of the nth substance listed
Settings: 100 kPa

C[N+](C)(C)CCC[N+]1(C)CCCCC1.N#C[N-]C#N.N#C[N-]C#N + CO
viscosity [mPa·s]
Settings	x1 = 0.0999	x1 = 0.2001	x1 = 0.3002	x1 = 0.3999	x1 = 0.5002	x1 = 0.6001	x1 = 0.7003	x1 = 0.7998	x1 = 0.8995	x1 = 1
293.15 K	4.25	14.7	39.6	109	–	–	1181	1884	2855	4503
303.15 K	3.58	–	–	70.3	–	330	610	920	1281	1837
313.15 K	3.09	8.9	20.3	46.7	100	203	337	489	646	860
323.15 K	–	7.22	–	33.8	68	130	206	292	369	460
333.15 K	2.46	6	12.5	–	48.4	88.2	134	187	236	270

C[N+](C)(C)CCC[n+]1ccccc1.N#C[N-]C#N.N#C[N-]C#N + CO
viscosity [mPa·s]
Settings	x1 = 0.0999	x1 = 0.2001	x1 = 0.3002	x1 = 0.3999	x1 = 0.5002	x1 = 0.6001	x1 = 0.7003	x1 = 0.7998	x1 = 0.8995	x1 = 1
293.15 K	4.37	14.9	32.5	–	117	233	343	508	–	2191
303.15 K	3.66	11.4	23.1	45.9	–	131	–	255	396	830
313.15 K	–	9.01	17.4	–	–	81.1	110	–	198	–
323.15 K	2.82	7.36	–	–	–	–	70.6	90.5	116	210
333.15 K	–	–	11.4	–	28	–	49.3	60.6	76	127

CO + C[N+](C)(C)CCC[N+]1(C)CCCCC1.N#C[N-]C#N.N#C[N-]C#N
x2 = 0
Settings	viscosity [mPa·s]
303.15 K	0.508
313.15 K	0.446
333.15 K	0.352

CO + C[N+](C)(C)CCC[n+]1ccccc1.N#C[N-]C#N.N#C[N-]C#N
x2 = 0
Settings	viscosity [mPa·s]
293.15 K	0.584
303.15 K	0.508
313.15 K	0.446
323.15 K	0.395
333.15 K	0.352
